Tests used:
Neratinib/HKI272 = compound: CCOc1cc2ncc(C#N)c(Nc3ccc(OCc4ccccn4)c(Cl)c3)c2cc1NC(=O)/C=C/CN(C)C [Neratinib/HKI272]; assay: increase in dead-cell fraction, 72 h; higher = more death;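 also: breast cancer cell lines in 384-well plates, stained with Hoechst plus LIVE/DEAD far red dye and imaged, cells above an LDR intensity threshold counted dead, Hoechst-negative corpses included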
BSJ-03-123 = compound: CC(=O)c1c(C)c2cnc(Nc3ccc(N4CCN(CCOCCOCCOCCNC(=O)COc5cccc6c5C(=O)N(C5CCC(=O)NC5=O)C6=O)CC4)cn3)nc2n(C2CCCC2)c1=O [BSJ-03-123]; assay: as above
[1] = compound: CC(=O)c1c(C)c2cnc(Nc3ccc(N4CCNCC4)cn3)nc2n(C2CCCC2)c1=O; assay: as above
[2] = compound: CCc1cnn2c(NCc3ccc[n+]([O-])c3)cc(N3CCCC[C@H]3CCO)nc12; assay: as above
YKL-5-124 = compound: C=CC(=O)Nc1ccc(C(=O)Nc2[nH]nc3c2CN(C(=O)N[C@H](CN(C)C)c2ccccc2)C3(C)C)cc1 [YKL-5-124]; assay: as above
THZ531 [3] = compound: T1, CN(C)C/C=C/C(=O)Nc1ccc(C(=O)N2CCC[C@@H](Nc3ncc(Cl)c(-c4c[nH]c5ccccc45)n3)C2)cc1 [THZ531]; assay: as above
THZ1 [4] = compound: T2, CN(C)C/C=C/C(=O)Nc1ccc(C(=O)Nc2cccc(Nc3ncc(Cl)c(-c4c[nH]c5ccccc45)n3)c2)cc1 [THZ1]; assay: as above
LEE011/Ribociclib = compound: CN(C)C(=O)c1cc2cnc(Nc3ccc(N4CCNCC4)cn3)nc2n1C1CCCC1 [LEE011/Ribociclib]; assay: as above
[5] = compound: CO[C@@H](C)Cn1c(=O)n(C)c2cnc3ccc(-c4cncc(C(C)(C)O)c4)cc3c21
[6] = compound: CC(=O)Nc1cccc(-n2c(=O)n(C3CC3)c(=O)c3c(Nc4ccc(I)cc4F)n(C)c(=O)c(C)c32)c1
Alpelisib/BYL719 = compound: Cc1nc(NC(=O)N2CCC[C@H]2C(N)=O)sc1-c1ccnc(C(C)(C)C(F)(F)F)c1 [Alpelisib/BYL719]
[7] = compound: CCCCOc1c(C(=O)c2c(F)cc(C)cc2F)c[nH]c2nncc1-2
AZD1775 = compound: C=CCn1c(=O)c2cnc(Nc3ccc(N4CCN(C)CC4)cc3)nc2n1-c1cccc(C(C)(C)O)n1 [AZD1775]
[8] = compound: COc1ccc2c(c1)[C@]1(C[C@H]1c1ccc3c(/C=C/c4ccc(CN5C[C@@H](C)O[C@@H](C)C5)cc4)n[nH]c3c1)C(=O)N2
THZ531 [9] = compound: T1, THZ531
THZ1 [10] = compound: T2, THZ1
BVD523 = compound: CC(C)Nc1cc(-c2c[nH]c(C(=O)N[C@H](CO)c3cccc(Cl)c3)c2)c(Cl)cn1 [BVD523]
Rucaparib = compound: CNCc1ccc(-c2[nH]c3cc(F)cc4c3c2CCNC4=O)cc1 [Rucaparib]
Cediranib/AZD2171 = compound: COc1cc2c(Oc3ccc4[nH]c(C)cc4c3F)ncnc2cc1OCCCN1CCCC1 [Cediranib/AZD2171]
Saracatinib/AZD0530 = compound: CN1CCN(CCOc2cc(OC3CCOCC3)c3c(Nc4c(Cl)ccc5c4OCO5)ncnc3c2)CC1 [Saracatinib/AZD0530]
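For GR50, 72 h in this document: breast cancer and non-malignant breast epithelial cell lines, Deep Dye Drop or Dye Drop imaging, nine half-log doses, GR normalized to time-zero plates and DMSO-only controls.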

UACC893
increase in dead-cell fraction (Neratinib/HKI272; 0.0003162 µM): -0.0043
increase in dead-cell fraction (Neratinib/HKI272; 0.001 µM): -0.0037
increase in dead-cell fraction (Neratinib/HKI272; 0.003162 µM): 0.0271
increase in dead-cell fraction (Neratinib/HKI272; 0.01 µM): 0.0964
increase in dead-cell fraction (Neratinib/HKI272; 0.03162 µM): 0.113
increase in dead-cell fraction (Neratinib/HKI272; 0.1 µM): 0.187
increase in dead-cell fraction (Neratinib/HKI272; 0.3162 µM): 0.21
increase in dead-cell fraction (Neratinib/HKI272; 1 µM): 0.299
increase in dead-cell fraction (Neratinib/HKI272; 3.162 µM): 0.417
increase in dead-cell fraction (BSJ-03-123; 0.001 µM): -0.0061
increase in dead-cell fraction (BSJ-03-123; 0.003162 µM): 0.0019
increase in dead-cell fraction (BSJ-03-123; 0.01 µM): 0.0038
increase in dead-cell fraction (BSJ-03-123; 0.03162 µM): -0.0027
increase in dead-cell fraction (BSJ-03-123; 0.1 µM): 0.0026
increase in dead-cell fraction (BSJ-03-123; 0.3162 µM): 0.0022
increase in dead-cell fraction (BSJ-03-123; 1 µM): 0.0012
increase in dead-cell fraction (BSJ-03-123; 3.162 µM): -0.0003
increase in dead-cell fraction (BSJ-03-123; 10 µM): 0.0009
increase in dead-cell fraction ([1]; 0.0003162 µM): -0.0005
increase in dead-cell fraction ([1]; 0.001 µM): 0.0008
increase in dead-cell fraction ([1]; 0.003162 µM): -0.0028
increase in dead-cell fraction ([1]; 0.01 µM): 0.0018
increase in dead-cell fraction ([1]; 0.03162 µM): 0.006
increase in dead-cell fraction ([1]; 0.1 µM): 0.0063
increase in dead-cell fraction ([1]; 0.3162 µM): 0.0087
increase in dead-cell fraction ([1]; 1 µM): 0.0064
increase in dead-cell fraction ([1]; 3.162 µM): 0.0017
increase in dead-cell fraction ([2]; 0.0001 µM): -0.0009
increase in dead-cell fraction ([2]; 0.0003162 µM): 0.0014
increase in dead-cell fraction ([2]; 0.001 µM): -0.005
increase in dead-cell fraction ([2]; 0.003162 µM): -0.0023
increase in dead-cell fraction ([2]; 0.01 µM): 0.0014
increase in dead-cell fraction ([2]; 0.03162 µM): 0.0697
increase in dead-cell fraction ([2]; 0.1 µM): 0.123
increase in dead-cell fraction ([2]; 0.3162 µM): 0.166
increase in dead-cell fraction ([2]; 1 µM): 0.169
increase in dead-cell fraction (YKL-5-124; 0.001 µM): -0.0033
increase in dead-cell fraction (YKL-5-124; 0.003162 µM): 0.0007
increase in dead-cell fraction (YKL-5-124; 0.01 µM): 0.002
increase in dead-cell fraction (YKL-5-124; 0.03162 µM): 0.0043
increase in dead-cell fraction (YKL-5-124; 0.1 µM): 0.007
increase in dead-cell fraction (YKL-5-124; 0.3162 µM): 0.0024
increase in dead-cell fraction (YKL-5-124; 1 µM): -0.0001
increase in dead-cell fraction (YKL-5-124; 3.162 µM): 0.0003
increase in dead-cell fraction (YKL-5-124; 10 µM): 0.163
increase in dead-cell fraction (THZ531 [3]; 0.0001 µM): -0.0016
increase in dead-cell fraction (THZ531 [3]; 0.0003162 µM): 0.0009
increase in dead-cell fraction (THZ531 [3]; 0.001 µM): 0.0027
increase in dead-cell fraction (THZ531 [3]; 0.003162 µM): 0.0008
increase in dead-cell fraction (THZ531 [3]; 0.01 µM): -0.0019
increase in dead-cell fraction (THZ531 [3]; 0.03162 µM): 0.0067
increase in dead-cell fraction (THZ531 [3]; 0.1 µM): 0.0859
increase in dead-cell fraction (THZ531 [3]; 0.3162 µM): 0.0937
increase in dead-cell fraction (THZ531 [3]; 1 µM): 0.109
increase in dead-cell fraction (THZ1 [4]; 0.0001 µM): -0.0022
increase in dead-cell fraction (THZ1 [4]; 0.0003162 µM): -0.0022
increase in dead-cell fraction (THZ1 [4]; 0.001 µM): 0.0023
increase in dead-cell fraction (THZ1 [4]; 0.003162 µM): -0.0026
increase in dead-cell fraction (THZ1 [4]; 0.01 µM): -0.0007
increase in dead-cell fraction (THZ1 [4]; 0.03162 µM): 0.0317
increase in dead-cell fraction (THZ1 [4]; 0.1 µM): 0.0774
increase in dead-cell fraction (THZ1 [4]; 0.3162 µM): 0.0967
increase in dead-cell fraction (THZ1 [4]; 1 µM): 0.134
increase in dead-cell fraction (LEE011/Ribociclib; 0.001 µM): -0.0008
increase in dead-cell fraction (LEE011/Ribociclib; 0.003162 µM): -0.0005
increase in dead-cell fraction (LEE011/Ribociclib; 0.01 µM): 0.0034
increase in dead-cell fraction (LEE011/Ribociclib; 0.03162 µM): 0.0015
increase in dead-cell fraction (LEE011/Ribociclib; 0.1 µM): 0.0055
increase in dead-cell fraction (LEE011/Ribociclib; 0.3162 µM): 0.0017
increase in dead-cell fraction (LEE011/Ribociclib; 1 µM): 0.0062
increase in dead-cell fraction (LEE011/Ribociclib; 3.162 µM): 0.0013
increase in dead-cell fraction (LEE011/Ribociclib; 10 µM): 0.0077
GR50, 72 h [5]: 0.00107 µM
GR50, 72 h [6]: 0.0212 µM
GR50, 72 h (Alpelisib/BYL719): 0.419 µM
GR50, 72 h [7]: 0.0897 µM
GR50, 72 h (AZD1775): 0.236 µM
GR50, 72 h [8]: 0.0124 µM
GR50, 72 h (THZ531 [9]): 0.0414 µM
GR50, 72 h (THZ1 [10]): 0.0175 µM
GR50, 72 h (BVD523): 0.868 µM
GR50, 72 h (Rucaparib): > 10 µM
GR50, 72 h (Cediranib/AZD2171): 6.59 µM
GR50, 72 h (Saracatinib/AZD0530): 4.54 µM

From the supplement of paper PMC9663587
